Values quoted from earlier work in PMC7180638, “Synthesis of Pyrrolidine Monocyclic Analogues of Pochonicine and Its Stereoisomers: Pursuit of Simplified Structures and Potent β-N-Acetylhexosaminidase Inhibition” (Molecules, 2020).
Where two headings read alike, the source gives them in different places.

Assays:
[1] = biological target: β-N-Acetylhexosaminidase (Bovine liver); details: ref [2]; cited from earlier work
[2] = biological target: β-N-Acetylhexosaminidase (Jack bean); details: ref [2]; cited from earlier work
[3] = biological target: T1, α-N-Acetylgalactosaminidase (Chicken liver) (Gallus gallus, UniProt Q90744); details: ref [2], cited from earlier work
T1 construct: purchased Sigma-Aldrich Chemical Co; host or cells: chicken liver
T1 sequence (Q90744 1-405): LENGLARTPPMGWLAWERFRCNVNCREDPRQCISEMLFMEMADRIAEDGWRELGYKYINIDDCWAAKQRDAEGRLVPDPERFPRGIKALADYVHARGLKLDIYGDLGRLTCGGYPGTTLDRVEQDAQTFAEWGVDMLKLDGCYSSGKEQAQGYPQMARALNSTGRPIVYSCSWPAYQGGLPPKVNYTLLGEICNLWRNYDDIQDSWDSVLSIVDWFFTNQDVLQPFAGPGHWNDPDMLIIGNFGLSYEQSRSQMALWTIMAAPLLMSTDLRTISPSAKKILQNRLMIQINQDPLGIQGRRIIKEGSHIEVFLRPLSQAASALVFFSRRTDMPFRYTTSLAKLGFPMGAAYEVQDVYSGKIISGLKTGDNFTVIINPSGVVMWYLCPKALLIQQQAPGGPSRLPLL

[4] = biological target: β-N-Acetylhexosaminidase (HL60); details: ref [2]; cited from earlier work
[5] = biological target: β-N Acetylhexosaminidase (A. oryzae); details: ref [2]; cited from earlier work
[6] = biological target: β-N-Acetylgalactosaminidase (HL60); details: ref [2]; cited from earlier work
[7] = biological target: β-N Acetylhexosaminidase (Human placenta); details: ref [2]; cited from earlier work

CC(=O)NC[C@H]1[C@H](O)[C@H](O)[C@@H]2[C@H](O)C[C@@H](CO)N21 [Pochonicine (1), pochonicine]
IC50 [1]: 21 nM
IC50 [2]: 1.6 nM
Inhibition % at 1000 μM ([3]; 1000 μM): 9.0%
IC50 ([3]; listed as pochonicine (1)): did not exhibit any inhibition
IC50 [3]: NI (No Inhibition (less than 50% at 1000 μM))
IC50 [4]: 18 nM
IC50 [5]: 330 nM
IC50 [6]: 49 nM
IC50 [7]: 12 nM
